Assay [1] concerns A549. Briefly: Cytotoxicity against human A549 cells at 50 uM by MTT assay. In kind it is functional, cell-based.
The next assay concerns 769-P. The assay can be described thus: Cytotoxicity against human 769-P cells at 50 uM by MTT assay. In kind it is functional, cell-based.
The next assay relates to HCT-116. Briefly: Cytotoxicity against human HCT116 cells at 50 uM by MTT assay. In kind it is functional, cell-based.
Assay [2] has as its system A549. Briefly: Cytotoxicity against TRAIL-resistant human A549 cells assessed as reduction in cell viability at 50 uM cotreated with TRAIL after 24 hrs by MTT assay relative to compound alone. In kind it is functional.
Assay [3] has as its system A549. The assay can be described thus: Cytotoxicity against TRAIL-resistant human A549 cells assessed as reduction in cell viability at 30 uM cotreated with TRAIL after 24 hrs by MTT assay relative to compound alone. In kind it is functional.
Assay [4] has as its system A549. Briefly: Cytotoxicity against TRAIL-resistant human A549 cells assessed as reduction in cell viability at 15 uM cotreated with TRAIL after 24 hrs by MTT assay relative to compound alone. In kind it is functional.
The test system of another assay is T-cell. Briefly: Immunosuppressive activity in BALB/c mouse T cells assessed as reduction in ConA-induced cell proliferation. In kind it is functional, cell-based.
The test system of another assay is B-cell line. Briefly: Immunosuppressive activity in BALB/c mouse B cells assessed as reduction in LPS-induced cell proliferation. In kind it is functional, cell-based.

This is an account of results in ChEMBL document CHEMBL4616663, “Resorcylic Acid Lactones from an Ilyonectria sp” (J Nat Prod, 2020).

Active and inactive are the calls of the source. The calls are words filed in the database; no cut-off is given here. Some results are limits rather than exact numbers.

As for `C[C@@H]1C/C=C/CC/C=C/[C@@H](O)CC(=O)Cc2c(Cl)c(O)cc(O)c2C(=O)O1`, the outcome in the assay on A549 [1], in the assay on 769-P and in the assay with HCT-116 was inactive. Moreover, the results for the Activity with A549 [2], in the assay with A549 [3] and in the assay with A549 [4] were 29%, 31% and 22%, respectively. Also, the concentration for half-maximal inhibition (IC50) in the assay with T-cell was found to be 4.1 µM; with B-cell line, 9.8 µM.
On to `C[C@@H]1CC(=O)CCC/C=C/C(=O)Cc2c(Cl)c(O)cc(O)c2C(=O)O1`, for which the result in the assay with A549 [1], in the assay on 769-P and in the assay with HCT-116 was inactive. The IC50 with T-cell and in the assay on B-cell line was > 25 µM each time.
As to `C[C@@H]1CC[C@H](O)C(=O)CCCC(=O)Cc2c(Cl)c(O)cc(O)c2C(=O)O1`, the result in the assay with A549 [1], in the assay on 769-P and with HCT-116 was inactive. For the same compound, the half-inhibitory concentration (IC50) in the assay on T-cell and with B-cell line was > 25 µM throughout.
In the case of `C[C@H]1OC(=O)c2c(O)cc(O)c(Cl)c2/C=C/CC/C=C/[C@@H]1O`, the outcome in the assay with A549 [1], with 769-P and in the assay on HCT-116 was inactive. Moreover, the IC50 in the assay with T-cell and in the assay on B-cell line was > 25 µM throughout.
Consider `C[C@@H]1C[C@@H](O)[C@@H]2CC[C@H](CC(=O)Cc3cc(O)cc(O)c3C(=O)O1)O2`, for which the result in the assay on A549 [1], in the assay with 769-P and with HCT-116 was inactive. In addition, the IC50 in the assay with T-cell and with B-cell line was > 25 µM in each case.
For the compound `C[C@H]1OC(=O)c2c(O)cc(O)cc2CC(=O)CCCC/C=C/[C@@H]1O`, the outcome in the assay with A549 [1], with 769-P and in the assay on HCT-116 was inactive. The 50% inhibitory concentration (IC50) in the assay with T-cell and in the assay with B-cell line was > 25 µM in each case.
For `CO[C@@H]1C=CC=C2Cc3c(Cl)c(O)cc(O)c3C(=O)O[C@H](C)C[C@@H](O)[C@H]1O2`, the result in the assay on A549 [1], in the assay on 769-P and in the assay on HCT-116 was inactive. Further, the concentration for half-maximal inhibition (IC50) with T-cell was > 25 µM; with B-cell line, 5.5 µM.
Turning to `C[C@@H]1C/C=C/CCCC[C@H](O)CC(=O)Cc2c(Cl)c(O)cc(O)c2C(=O)O1`, the outcome in the assay with A549 [1], with 769-P and with HCT-116 was inactive. Besides, in the assay with A549 [2], the Activity worked out at 27%. Besides, the 50% inhibitory concentration (IC50) in the assay on T-cell and with B-cell line was > 25 µM in each case.
For the compound `C[C@@H]1C[C@@H](O)/C=C\CCCC(=O)Cc2c(Cl)c(O)cc(O)c2C(=O)O1`, the result in the assay on A549 [1], in the assay with 769-P and with HCT-116 was inactive. Also, the IC50 in the assay on T-cell was > 25 µM; in the assay with B-cell line it was 21.9 µM.
Take `COc1c(C)c2c(c(O)c1C/C=C(\C)CCC(=O)OCCN1CCOCC1)C(=O)OC2` [MYCOPHENOLATE MOFETIL]: the IC50 in the assay on B-cell line worked out at 3.2 µM.
Take `C[C@@H]1C[C@@H]2O[C@H]2[C@@H]2O[C@@H]2/C=C/[C@@H](O)CC(=O)Cc2c(Cl)c(O)cc(O)c2C(=O)O1`: the result with A549 [1], with 769-P and in the assay with HCT-116 was inactive. Moreover, the IC50 was 1.9 µM in the assay with T-cell and 1.1 µM in the assay on B-cell line.
Turning to `C[C@@H]1C/C=C/C(=O)CCCC(=O)Cc2cc(O)cc(O)c2C(=O)O1`, the outcome in the assay with A549 [1], in the assay with 769-P and with HCT-116 was inactive. Further, the 50% inhibitory concentration (IC50) in the assay on T-cell was > 25 µM; with B-cell line, 18.5 µM.
Turning to `C[C@@H]1C/C=C/CCCC[C@@H](O)CC(=O)Cc2c(Cl)c(O)cc(O)c2C(=O)O1`, the result in the assay on A549 [1], with 769-P and in the assay on HCT-116 was inactive. For the same compound, in the assay with A549 [2], the Activity was found to be 26%. Also, the IC50 in the assay with T-cell and in the assay with B-cell line was > 25 µM throughout.
